# Data as given in patent US12404262B2 (priority 2021, dated 2025).
# Where two headings read alike, the source gives them in different places.
# [1] = 0.1N HCl, 1.0% DMSO, 24-hour incubation at ambient temperature, maximum theoretical 100 μM, first value of the cell
# [2] = 1×PBS buffer (pH 7.4), 1.0% DMSO, 24-hour incubation at ambient temperature, maximum theoretical 100 μM, second value of the cell
SMILES,pH 2 solubility [1],pH 7 solubility [2],pH 7 solubility,pH 2 solubility (pH 2)
"CC(C)(C#Cc1ccc(-c2ccc(Cl)c3c(N(C(=O)OCCCS(=O)(=O)O)S(C)(=O)=O)nn(CC(F)(F)F)c23)c([C@H](Cc2cc(F)cc(F)c2)NC(=O)Cn2nc(C(F)(F)F)c3c2C(F)(F)[C@@H]2C[C@H]32)n1)S(C)(=O)=O [Compound 111, 3-(((4-chloro-7-(2-((S)-1-(2-((3bS,4aR)-5,5-difluoro-3-(trifluoromethyl)-3b,4,4a,5-tetrahydro-1H-cyclopropa[3,4]cyclopenta[1,2-c]pyrazol-1-yl)acetamido)-2-(3,5-difluorophenyl)ethyl)-6-(3-methyl-3-(methylsulfonyl)but-1-yn-1-yl)pyridin-3-yl)-1-(2,2,2-trifluoroethyl)-1H-indazol-3-yl)(methylsulfonyl)carbamoyl)oxy)propane-1-sulfonic acid]",33 μM,42 μM,–,–
"CC(C)(C#Cc1ccc(-c2ccc(Cl)c3c(N(C(=O)OCCN4CCOCC4)S(C)(=O)=O)nn(CC(F)(F)F)c23)c([C@H](Cc2cc(F)cc(F)c2)NC(=O)Cn2nc(C(F)(F)F)c3c2C(F)(F)[C@@H]2C[C@H]32)n1)S(C)(=O)=O [Compound 114, 2-morpholinoethyl (4-chloro-7-(2-((S)-1-(2-((3bS,4aR)-5,5-difluoro-3-(trifluoromethyl)-3b,4,4a,5-tetrahydro-1H-cyclopropa[3,4]cyclopenta[1,2-c]pyrazol-1-yl)acetamido)-2-(3,5-difluorophenyl)ethyl)-6-(3-methyl-3-(methylsulfonyl)but-1-yn-1-yl)pyridin-3-yl)-1-(2,2,2-trifluoroethyl)-1H-indazol-3-yl)(methylsulfonyl)carbamate]",24 μM,1 μM,–,–
"C[C@H](OC(=O)N(c1nn(CC(F)(F)F)c2c(-c3ccc(C#CC(C)(C)S(C)(=O)=O)nc3[C@H](Cc3cc(F)cc(F)c3)NC(=O)Cn3nc(C(F)(F)F)c4c3C(F)(F)[C@@H]3C[C@H]43)ccc(Cl)c12)S(C)(=O)=O)C(=O)O [Compound 115, (S)-2-(((4-chloro-7-(2-((S)-1-(2-((3bS,4aR)-5,5-difluoro-3-(trifluoromethyl)-3b,4,4a,5-tetrahydro-1H-cyclopropa[3,4]cyclopenta[1,2-c]pyrazol-1-yl)acetamido)-2-(3,5-difluorophenyl)ethyl)-6-(3-methyl-3-(methylsulfonyl)but-1-yn-1-yl)pyridin-3-yl)-1-(2,2,2-trifluoroethyl)-1H-indazol-3-yl)(methylsulfonyl)carbamoyl)oxy)propanoic acid]",1/1 μM,1/1 μM,–,–
"C[C@@H](OC(=O)N(c1nn(CC(F)(F)F)c2c(-c3ccc(C#CC(C)(C)S(C)(=O)=O)nc3[C@H](Cc3cc(F)cc(F)c3)NC(=O)Cn3nc(C(F)(F)F)c4c3C(F)(F)[C@@H]3C[C@H]43)ccc(Cl)c12)S(C)(=O)=O)C(=O)O [Compound 116, (R)-2-(((4-chloro-7-(2-((S)-1-(2-((3bS,4aR)-5,5-difluoro-3-(trifluoromethyl)-3b,4,4a,5-tetrahydro-1H-cyclopropa[3,4]cyclopenta[1,2-c]pyrazol-1-yl)acetamido)-2-(3,5-difluorophenyl)ethyl)-6-(3-methyl-3-(methylsulfonyl)but-1-yn-1-yl)pyridin-3-yl)-1-(2,2,2-trifluoroethyl)-1H-indazol-3-yl)(methylsulfonyl)carbamoyl)oxy)propanoic acid]",1/1 μM,1/1 μM,–,–
"CC(C)(C#Cc1ccc(-c2ccc(Cl)c3c(N(C(=O)OCC(=O)O)S(C)(=O)=O)nn(CC(F)(F)F)c23)c([C@H](Cc2cc(F)cc(F)c2)NC(=O)Cn2nc(C(F)(F)F)c3c2C(F)(F)[C@@H]2C[C@H]32)n1)S(C)(=O)=O [Compound 117, 2-(((4-chloro-7-(2-((S)-1-(2-((3bS,4aR)-5,5-difluoro-3-(trifluoromethyl)-3b,4,4a,5-tetrahydro-1H-cyclopropa[3,4]cyclopenta[1,2-c]pyrazol-1-yl)acetamido)-2-(3,5-difluorophenyl)ethyl)-6-(3-methyl-3-(methylsulfonyl)but-1-yn-1-yl)pyridin-3-yl)-1-(2,2,2-trifluoroethyl)-1H-indazol-3-yl)(methylsulfonyl)carbamoyl)oxy)acetic acid]",9 μM,10 μM,–,–
"CC(C)(C#Cc1ccc(-c2ccc(Cl)c3c(N(C(=O)O[C@H](C(=O)O)[C@H](O)C(=O)O)S(C)(=O)=O)nn(CC(F)(F)F)c23)c([C@H](Cc2cc(F)cc(F)c2)NC(=O)Cn2nc(C(F)(F)F)c3c2C(F)(F)[C@@H]2C[C@H]32)n1)S(C)(=O)=O [Compound 118, (2S,3S)-2-(((4-chloro-7-(2-((S)-1-(2-((3bS,4aR)-5,5-difluoro-3-(trifluoromethyl)-3b,4,4a,5-tetrahydro-1H-cyclopropa[3,4]cyclopenta[1,2-c]pyrazol-1-yl)acetamido)-2-(3,5-difluorophenyl)ethyl)-6-(3-methyl-3-(methylsulfonyl)but-1-yn-1-yl)pyridin-3-yl)-1-(2,2,2-trifluoroethyl)-1H-indazol-3-yl)(methylsulfonyl)carbamoyl)oxy)-3-hydroxysuccinic acid]",1/1 μM,1/1 μM,–,–
"CC(C)(C#Cc1ccc(-c2ccc(Cl)c3c(N(C(=O)O[C@@H](CC(=O)O)C(=O)O)S(C)(=O)=O)nn(CC(F)(F)F)c23)c([C@H](Cc2cc(F)cc(F)c2)NC(=O)Cn2nc(C(F)(F)F)c3c2C(F)(F)[C@@H]2C[C@H]32)n1)S(C)(=O)=O [Compound 119, (S)-2-(((4-chloro-7-(2-((S)-1-(2-((3bS,4aR)-5,5-difluoro-3-(trifluoromethyl)-3b,4,4a,5-tetrahydro-1H-cyclopropa[3,4]cyclopenta[1,2-c]pyrazol-1-yl)acetamido)-2-(3,5-difluorophenyl)ethyl)-6-(3-methyl-3-(methylsulfonyl)but-1-yn-1-yl)pyridin-3-yl)-1-(2,2,2-trifluoroethyl)-1H-indazol-3-yl)(methylsulfonyl)carbamoyl)oxy)succinic acid]",1/1 μM,1/1 μM,–,–
"C[C@@H](CC(=O)O)OC(=O)N(c1nn(CC(F)(F)F)c2c(-c3ccc(C#CC(C)(C)S(C)(=O)=O)nc3[C@H](Cc3cc(F)cc(F)c3)NC(=O)Cn3nc(C(F)(F)F)c4c3C(F)(F)[C@@H]3C[C@H]43)ccc(Cl)c12)S(C)(=O)=O [Compound 120, (S)-3-(((4-chloro-7-(2-((S)-1-(2-((3bS,4aR)-5,5-difluoro-3-(trifluoromethyl)-3b,4,4a,5-tetrahydro-1H-cyclopropa[3,4]cyclopenta[1,2-c]pyrazol-1-yl)acetamido)-2-(3,5-difluorophenyl)ethyl)-6-(3-methyl-3-(methylsulfonyl)but-1-yn-1-yl)pyridin-3-yl)-1-(2,2,2-trifluoroethyl)-1H-indazol-3-yl)(methylsulfonyl)carbamoyl)oxy)butanoic acid]",1 μM,9 μM,–,–
"CC(C)(C#Cc1ccc(-c2ccc(Cl)c3c(N(C(=O)OCCC(=O)O)S(C)(=O)=O)nn(CC(F)(F)F)c23)c([C@H](Cc2cc(F)cc(F)c2)NC(=O)Cn2nc(C(F)(F)F)c3c2C(F)(F)[C@@H]2C[C@H]32)n1)S(C)(=O)=O [Compound 121, 3-(((4-chloro-7-(2-((S)-1-(2-((3bS,4aR)-5,5-difluoro-3-(trifluoromethyl)-3b,4,4a,5-tetrahydro-1H-cyclopropa[3,4]cyclopenta[1,2-c]pyrazol-1-yl)acetamido)-2-(3,5-difluorophenyl)ethyl)-6-(3-methyl-3-(methylsulfonyl)but-1-yn-1-yl)pyridin-3-yl)-1-(2,2,2-trifluoroethyl)-1H-indazol-3-yl)(methylsulfonyl)carbamoyl)oxy)propanoic acid]",1 μM,21 μM,–,–
"CC(C)(C#Cc1ccc(-c2ccc(Cl)c3c(N(C(=O)OC(CCC(=O)O)CCC(=O)O)S(C)(=O)=O)nn(CC(F)(F)F)c23)c([C@H](Cc2cc(F)cc(F)c2)NC(=O)Cn2nc(C(F)(F)F)c3c2C(F)(F)[C@@H]2C[C@H]32)n1)S(C)(=O)=O [Compound 124, 4-(((4-chloro-7-(2-((S)-1-(2-((3bS,4aR)-5,5-difluoro-3-(trifluoromethyl)-3b,4,4a,5-tetrahydro-1H-cyclopropa[3,4]cyclopenta[1,2-c]pyrazol-1-yl)acetamido)-2-(3,5-difluorophenyl)ethyl)-6-(3-methyl-3-(methylsulfonyl)but-1-yn-1-yl)pyridin-3-yl)-1-(2,2,2-trifluoroethyl)-1H-indazol-3-yl)(methylsulfonyl)carbamoyl)oxy)heptanedioic acid]",–,–,2/83 μM,2/83 μM
"CC(C)(C#Cc1ccc(-c2ccc(Cl)c3c(N(C(=O)O[C@H]4C[C@@H](NC(=N)N)C4)S(C)(=O)=O)nn(CC(F)(F)F)c23)c([C@H](Cc2cc(F)cc(F)c2)NC(=O)Cn2nc(C(F)(F)F)c3c2C(F)(F)[C@@H]2C[C@H]32)n1)S(C)(=O)=O [Compound 127, cis-3-guanidinocyclobutyl (4-chloro-7-(2-((S)-1-(2-((3bS,4aR)-5,5-difluoro-3-(trifluoromethyl)-3b,4,4a,5-tetrahydro-1H-cyclopropa[3,4]cyclopenta[1,2-c]pyrazol-1-yl)acetamido)-2-(3,5-difluorophenyl)ethyl)-6-(3-methyl-3-(methylsulfonyl)but-1-yn-1-yl)pyridin-3-yl)-1-(2,2,2-trifluoroethyl)-1H-indazol-3-yl)(methylsulfonyl)carbamate]",8 μM,1 μM,–,–
"CC(C)(C#Cc1ccc(-c2ccc(Cl)c3c(N(C(=O)O[C@H]4C[C@H](NC(=N)N)C4)S(C)(=O)=O)nn(CC(F)(F)F)c23)c([C@H](Cc2cc(F)cc(F)c2)NC(=O)Cn2nc(C(F)(F)F)c3c2C(F)(F)[C@@H]2C[C@H]32)n1)S(C)(=O)=O [Compound 128, trans-3-guanidinocyclobutyl (4-chloro-7-(2-((S)-1-(2-((3bS,4aR)-5,5-difluoro-3-(trifluoromethyl)-3b,4,4a,5-tetrahydro-1H-cyclopropa[3,4]cyclopenta[1,2-c]pyrazol-1-yl)acetamido)-2-(3,5-difluorophenyl)ethyl)-6-(3-methyl-3-(methylsulfonyl)but-1-yn-1-yl)pyridin-3-yl)-1-(2,2,2-trifluoroethyl)-1H-indazol-3-yl)(methylsulfonyl)carbamate]",5 μM,1 μM,–,–
